Measurements from patent US8618355B2, “Aromatic prenyltransferase from hop” (priority 2008, dated 2013).
Like-named read-outs stand apart in the source and are kept apart here.

Columns and labels:
HIPT1 [1] = target: T1, HIPT1 (Humulus lupulus, UniProt E5RP65, INS53SN/R152W); test: HIPT1 enzyme assay with aromatic substrate and DMAPP, products analysed by HPLC and LC-MS; format: biochemical; parameters: were designed to amplify the open reading frame (ORF) of the prenlyltransferase gene; N-terminal 6xHis and TEV site from the pFastBacHT C vector (own knowledge of the vector); made in house; host or cells: Spodoptera frugiperda (Sf9) insect cells, baculovirus (Bac-to-Bac); microsomal preparation, not purified; settings: 0.5 mM aromatic substrate, 0.5 mM DMAPP, 30° C., 120 min, pH 7.0
Method: (§1) HIPT1 enzyme was assayed with phlorisobutyryphenone (PIBP), phlorisovalerophenone (PIVP) and chalconaringenin. Microsomal preparations from Example 2 were used in a 100 μl enzyme assay containing 100 mM Tris-HCl pH 7.0, 10 mM MgCl2, 0.5 mM aromatic substrate (PIBP, PIVP or chalconaringenin), 0.5 mM dimethylallyldiphosphate (DMAPP) and 20 μl of microsomes from insect cells expressing recombinant HIPT1. The assays were incubated at 30° C. for 120 min, the reactions stopped by addition of 5 μl 6N HCl, the reaction products extracted with 200 μl ethyl acetate and dried. The dried products were resuspended in 100 μl of methanol and analyzed by reversed-phase HPLC (solvent A: 0.1% TFA in water, solvent B: acetonitrile; 0-10 min, 40% B to 50% B; 10-20 min, 50% B to 100% B; flow rate 1 ml/min).
Abbreviations: PIBP is phlorisobutyrophenone, PIVP is phlorisovalerophenone, DMAPP is dimethylallyl diphosphate.

HIPT1 [2] = target: T1, HIPT1; format: biochemical; parameters: were designed to amplify the open reading frame (ORF) of the prenlyltransferase gene; N-terminal 6xHis and TEV site from the pFastBacHT C vector (own knowledge of the vector); made in house; host or cells: Spodoptera frugiperda (Sf9) insect cells, baculovirus (Bac-to-Bac); microsomal preparation, not purified; settings: mean ± SD (n = 3), read-out: Km Substrate
Method: as §1

HIPT1 [3] = target: T1, HIPT1; test: Substrate specificity of HIPT1 prenyltransferase activity (14C-DMAPP, radioHPLC); format: biochemical; parameters: were designed to amplify the open reading frame (ORF) of the prenlyltransferase gene; N-terminal 6xHis and TEV site from the pFastBacHT C vector (own knowledge of the vector); made in house; host or cells: Spodoptera frugiperda (Sf9) insect cells, baculovirus (Bac-to-Bac); microsomal preparation, not purified; settings: aromatic acceptor substrates
Method: Referring to FIG. 9A, prenyltransferase activity of HIPT1 on various substrates was measured using ^14C-DMAPP and thirteen aromatic acceptor substrates. Prenylated products were detected and quantified using radioHPLC. Error bars are SD (n=3). Referring to FIG. 9B, prenyltransferase activity of HIPT1 was measured with different prenyl diphosphate donors and the three major aromatic acceptor substrates, PIBP, PIVP and chalconaringenin. Prenylated products were quantified using HPLC with UV detection. Abbreviations: PIBP, phlorisobutyrophenone, PIVP, phlorisovalerophenone; DMAPP, dimethylallyl diphosphate; IPP, isopentenyl diphosphate; GPP, geranyl diphosphate; GGPP, geranylgeranyl diphosphate. Error bars are SD (n=3).

HIPT1 [4] = target: T1, HIPT1; settings: presence of EDTA

T1 sequence (E5RP65 other isoform, or with tags, fused parts or gaps INS53SN/R152W): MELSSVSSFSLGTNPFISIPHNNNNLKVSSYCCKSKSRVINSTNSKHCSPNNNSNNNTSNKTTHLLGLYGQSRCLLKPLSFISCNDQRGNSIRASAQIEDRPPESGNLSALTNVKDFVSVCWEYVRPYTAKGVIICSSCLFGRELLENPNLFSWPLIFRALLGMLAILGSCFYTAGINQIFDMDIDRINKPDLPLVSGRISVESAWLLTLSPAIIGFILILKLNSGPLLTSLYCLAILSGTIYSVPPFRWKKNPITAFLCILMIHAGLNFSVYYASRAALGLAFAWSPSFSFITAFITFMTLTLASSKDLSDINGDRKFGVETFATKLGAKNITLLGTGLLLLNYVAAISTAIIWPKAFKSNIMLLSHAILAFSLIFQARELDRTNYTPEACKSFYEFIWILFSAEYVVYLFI

| Structure (SMILES) | Prenylation by HIPT1 (product formed) (HIPT1 [1]) | Km (HIPT1 [2]; acceptor substrate) [µM] | Acceptance as substrate of HIPT1 (HIPT1 [3]) | also measured |
| --- | --- | --- | --- | --- |
| CC(C)C(=O)c1c(O)cc(O)cc1O [PIBP, phlorisobutyryphenone] | forming prenyl PIBP | 10.2 ± 0.55 | – | – |
| CC(C)=CCOP(=O)(O)OP(=O)(O)O [DMAPP, dimethylallyldiphosphate] | – | – | – | Km (HIPT1 [2]; prenyl donor, determined with PIVP as acceptor substrate): 16.8 ± 2.35 µM |
| Cc1cc(O)cc(O)c1 [orcinol] | – | – | can accept | – |
| O=C(O)CN(CCN(CC(=O)O)CC(=O)O)CC(=O)O [EDTA] | – | – | – | Effect on prenyltransferase activity of HIPT1 (HIPT1 [4]): completely inhibited |
| CC(C)CC(=O)c1c(O)cc(O)cc1O [PIVP, phlorisovalerophenone] | forming prenyl PIVP | 4.95 ± 0.25 | – | – |
| CC(C)=CCc1c(O)cc(O)c(C(=O)C(C)C)c1O [prenyl-PIBP] | – | – | does prenylate prenyl-PIBP to form diprenyl-PIBP | – |
| O=C(/C=C/c1ccc(O)cc1)c1ccc(O)cc1O [isoliquiritigenin] | – | – | can accept | – |
| O=C(/C=C/c1ccc(O)cc1)c1c(O)cc(O)cc1O [Chalconaringenin, chalconaringenin] | forming desmethylxanthohumol | 196 ± 24.8 | – | – |
| Oc1ccc(C=Cc2cc(O)cc(O)c2)cc1 [resveratrol] | – | – | can accept | – |
